Assay type in all cases: cell-based, human
Assay [1] relates to ribosomal protein. Put plainly: Acetyl-lysine western blot of ribopellets (ribosomal protein acetylation). The settings on record: SKBR3 cells; for ribosomal protein acetylation, including the band that co-migrates with RPL24: western blot of ribopellets (FIG. 4c,d). The procedure:
(§1) Previous studies have shown that pan-inhibitors of class I and II histone deacetylases, like TSA, can rapidly destabilize a number of oncogenic transcripts including HER2 in a cycloheximide-dependent manner (FIG. 9). […] Thus, SKBR3 cells were treated with TSA to evaluate polysome protein acetylation and determine if, similar to RPL24 depletion, histone deacetylase inhibition can affect ribosome assembly dynamics. To detect early (2 h) ribosome or polysome acetylation following histone deacetylase inhibition treatment (1 μM TSA), SKBR3 polysomes were isolated using a discontinuous sucrose gradient as previously described. […] Mass spectrometry studies indicate that 15 ribosomal proteins, 11 large subunit proteins (RPL24 included) and 4 small subunit proteins, underwent at least a two-fold induction in acetylation following 2 h or 6 h TSA treatment (1 μM) (FIG. 4b, FIG. 10a-q).
(§2) Like TSA, the HDAC6 (class IIb)-selective inhibitors, Tubacin and Compound 101, as well as HDAC6 siRNA, all induce tubulin acetylation as expected as well as ribosomal protein acetylation, including the band that co-migrates with RPL24 (FIG. 4c,d, indicated by arrows). […] Thus, the tubulin acetylating effects of pan-histone deacetylase inhibition, known to be mediated by inhibition or knockdown of HDAC6, correspond to the observed ribosome and RPL24 acetylation responses induced by TSA.
(§3) Cells are lysed in RIPA buffer (10 mM Tris-HCL (pH 8.0), 1 mM EDTA, 0.5 mM EGTA, 1% triton X-100, 0.1% sodium deoxycholate, 0.1% SDS, 140 mM NaCl, 20 mM NaF, Complete EDTA-free protease inhibitor tablets (Roche Diagnostics Corp., Basel, Switzerland) and the phosphatase inhibitor cocktail PhosSTOP (Roche)), the latter two as indicated by the manufacturer's protocol. Equal amounts of protein are diluted in 2× sample buffer. Immunoblots on PVDF (Polyvinyldene Fluoride) membranes are blocked with nonfat milk in tris-buffered saline with 0.05% tween-20 (TBST). The following antibodies are incubated with membranes in 5% nonfat milk in TBST: RPL24 (Proteintech, Chicago, Ill.), Cyclin D1, Rack1, RPL4 (Santa Cruz Biotechnology, Santa Cruz, Calif.), NBS1, GAPDH (EMD Millipore Corporation, Chicago, Ill.), Survivin, β-tubulin, acetyl-lysine, eIF6, acetyl-H2B, H2B, (Cell Signaling Technology, Boston, Mass.), acetyl-tubulin, tubulin (Sigma Aldrich (St. Louis, Mo.))
Cells, plated at […] confluency, are treated as indicated. After treatment, cells are treated with 50 μg/ml cycloheximide for 15 minutes. Cells are lysed with a buffer containing 10 mM HEPES, 10 mM KCl, 75 mM NaCl, 10 mM MgCl2, 0.35% NP40, pH 7.9 supplemented with Complete EDTA-free protease inhibitor tablets, PhosSTOP phosphatase inhibitor tablets (Roche) per manufacturer's instructions, 50 μg/ml cycloheximide, SUPERase RNase inhibitors (Life Technologies) per manufacturer's instructions, 15 μM TSA, and 5 mM nicotinimide to inhibit histone deacetylases. Supernatants are collected as cytoplasmic preparations. Where indicated, pellets containing nuclei are resuspended in RIPA buffer (described above). The suspension is spun at 13,000 rpm for 5 min and supernatants are collected as nuclear preparations.
Ribosomes are subsequently isolated from cytoplasmic preparations as described previously. Briefly, lysates are layered on top of a 12% and 33% discontinuous sucrose gradient and spun at 38,000 rpm for 2 h. The resulting polysome pellet is then resuspended, stripped of RNA with acetic acid, and then pelleted with acetone. The pellet is then resuspended in 8 M urea, 2% CHAPS, and 25 mM dithiothreitol (DTT).
FIG. 4: Ribosomal protein acetylation is induced by histone deacetylase inhibition. (a-c) SKBR3 cells were treated with the indicated drugs for the indicated period of time. (d) SKBR3 cells were transfected with the indicated siRNAs and allowed to incubate for 72 hours. (a, c, d). The indicated western blots were performed in ribopellets, total cytoplasmic lysates, or nuclear extracts. […]
A general note: In western blotting, separated proteins are transferred to a membrane and probed.

Assay [2] has as its system tubulin. Put plainly: Western blot for tubulin acetylation in SKBR3 cells. The settings on record: western blot (FIG. 4c,d).
Description: as §2, §3
FIG. 4: Ribosomal protein acetylation is induced by histone deacetylase inhibition. (a-c) SKBR3 cells were treated with the indicated drugs for the indicated period of time. (d) SKBR3 cells were transfected with the indicated siRNAs and allowed to incubate for 72 hours. (a, c, d). The indicated western blots were performed in ribopellets, total cytoplasmic lysates, or nuclear extracts. (b) Mass spectrometry was performed on ribopellets as described in materials and methods and in FIG. 6. The fold change in acetylated peptide to total peptide case by TSA treatment is plotted. Only proteins that underwent at least a two-fold induction upon TSA treatment are shown. Error bars represent the standard error of the mean for three biological replicates.

Assay [3] has as its system histone H2B. Put plainly: Western blot for histone H2B acetylation in SKBR3 cells. The settings on record: western blot (FIG. 4c).
Description: as §2
Cells are lysed in RIPA buffer (10 mM Tris-HCL (pH 8.0), 1 mM EDTA, 0.5 mM EGTA, 1% triton X-100, 0.1% sodium deoxycholate, 0.1% SDS, 140 mM NaCl, 20 mM NaF, Complete EDTA-free protease inhibitor tablets (Roche Diagnostics Corp., Basel, Switzerland) and the phosphatase inhibitor cocktail PhosSTOP (Roche)), the latter two as indicated by the manufacturer's protocol. Equal amounts of protein are diluted in 2× sample buffer. Immunoblots on PVDF (Polyvinyldene Fluoride) membranes are blocked with nonfat milk in tris-buffered saline with 0.05% tween-20 (TBST). […]

Assay [4] relates to HER2 mRNA. Put plainly: Northern blot of HER2 transcript levels. The settings on record: SKBR3 cells, cycloheximide 50 μg/ml, 6 h with TSA 1 μM. Here is the method: as §1
Cells are harvested and RNA is extracted using Trizol (Life Technologies) per manufacturer's protocol. Northern blots are performed as previously described. Briefly, RNA is then electrophoresed into 1% agarose-formaldehyde gels and transferred onto PVDF membranes. Membranes are then hybridized with ^32P-labelled cDNA probes for HER2 or GAPDH, washed, and visualized by autoradiography.
SKBR3 cells were treated with TSA (1 μM, 6 h) and/or cycloheximide (CX, 50 μg/ml, 6 h) or with the respective vehicle controls. […]

The structures appear in SMILES notation.

On to `O=C(NO)c1cnc(NC2(c3cccc(F)c3)CCCCC2)nc1` [Compound 101], for which, in assay [1], the “ribosomal protein acetylation, including the band that co-migrates with RPL24” value is on record as “induce”. Moreover, the tubulin acetylation result in assay [2] is “induce”.
As for `Nc1ccccc1NC(=O)c1ccc(CNC(=O)OCc2cccnc2)cc1` [Entinostat], the ribosomal protein acetylation result in assay [1] (even at a dose of 20 μM (FIG. 4c)) was “does not alter”. The tubulin acetylation entry in assay [2] is recorded as “without acetylating tubulin”. Also, in assay [3], the “histone H2B acetylation” value is recorded as “induces”.
`O=C(CCCCCCC(=O)Nc1ccc([C@H]2O[C@@H](CSc3nc(-c4ccccc4)c(-c4ccccc4)o3)C[C@@H](c3ccc(CO)cc3)O2)cc1)NO` [Tubacin]: in assay [1], the “ribosomal protein acetylation, including the band that co-migrates with RPL24” value is reported as “induce”. Besides, the tubulin acetylation entry in assay [2] is recorded as “induce”.
On to `C[C@@H]1C[C@@H]([C@H](O)CC2CC(=O)NC(=O)C2)C(=O)[C@@H](C)C1` [cycloheximide], for which the “effect on TSA-induced HER2 mRNA decay” value in assay [4] is given as “abrogated”.
